Data as given in patent US20120178738A1, “DIBENZO [B,F] [1,4]OXAZAPINE COMPOUNDS” (ARYX THERAPEUTICS, INC., priority 2007, published 2012).
Read-outs that look alike come from different tables or passages of the source.

Legend:
[1] = biological target: T1, 5-HT2A receptor (Rattus norvegicus, UniProt P14842); experiment: cell-based
T1 construct: Eight strips of tissue (0.5 cm long) were cut. and were mounted in 10 ml organ baths; tissue Charles River Laboratories; host or cells: rat aorta strips, endothelium removed
T1 sequence (P14842 whole entry): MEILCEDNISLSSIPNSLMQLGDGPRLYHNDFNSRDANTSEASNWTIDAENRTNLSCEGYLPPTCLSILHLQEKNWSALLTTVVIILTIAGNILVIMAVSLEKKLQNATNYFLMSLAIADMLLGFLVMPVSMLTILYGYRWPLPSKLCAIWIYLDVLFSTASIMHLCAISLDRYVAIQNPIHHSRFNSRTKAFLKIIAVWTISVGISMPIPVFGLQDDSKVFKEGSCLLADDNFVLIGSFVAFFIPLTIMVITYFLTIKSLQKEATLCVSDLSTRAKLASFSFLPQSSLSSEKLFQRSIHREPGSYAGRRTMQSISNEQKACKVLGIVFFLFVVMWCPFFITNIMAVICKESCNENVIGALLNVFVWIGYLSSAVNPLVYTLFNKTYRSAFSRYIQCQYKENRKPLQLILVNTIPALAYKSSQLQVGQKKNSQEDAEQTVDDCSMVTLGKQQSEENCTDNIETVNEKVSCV
Method in brief: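 Agonist EC50 and antagonist pKB or pA2 values come from curves fitted by Parker–Waud and from EC50 concentration-ratios with versus without antagonist. Tissue: rat aorta strips, endothelium removed, 37° C Krebs pH 7.4 with 95% O2/5% CO2, 2 g tension; response as % of 5-HT maximum.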

[2] = biological target: T2, human D2s dopamine receptors (Homo sapiens, UniProt P14416); experiment: hD2S receptor radioligand binding ([3H]spiperone); details: pKi reported on a scale of 1 through 5
T2 construct: expressed in transfected cells; host or cells: Chinese hamster ovary cells (membranes)
T2 sequence (P14416 1-414 isoform P14416-2): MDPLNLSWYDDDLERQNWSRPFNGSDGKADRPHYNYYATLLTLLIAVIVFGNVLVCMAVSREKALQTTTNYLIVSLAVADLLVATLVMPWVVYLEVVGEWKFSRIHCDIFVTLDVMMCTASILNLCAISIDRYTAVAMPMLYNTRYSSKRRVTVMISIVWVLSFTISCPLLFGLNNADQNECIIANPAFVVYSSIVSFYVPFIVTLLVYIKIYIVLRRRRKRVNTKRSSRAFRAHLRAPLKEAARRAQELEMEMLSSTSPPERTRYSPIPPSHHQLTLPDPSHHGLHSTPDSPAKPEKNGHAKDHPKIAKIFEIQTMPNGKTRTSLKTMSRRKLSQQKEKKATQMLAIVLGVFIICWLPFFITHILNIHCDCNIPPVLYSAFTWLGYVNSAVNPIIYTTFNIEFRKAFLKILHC
Method in brief: (§1)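 Read-out was radioligand retained after filtration, corrected for nonspecific binding determined with a blocking compound. Receptor-containing membranes or tissues had been incubated at equilibrium with one radioligand concentration and varying unlabelled compound.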

[3] = biological target: T3, human D2L dopamine receptors (Homo sapiens, UniProt P14416); experiment: hD2L receptor radioligand binding ([3H]spiperone)
T3 construct: expressed in transfected cells; host or cells: insect Sf9 cells (membranes)
T3 sequence (P14416 whole entry): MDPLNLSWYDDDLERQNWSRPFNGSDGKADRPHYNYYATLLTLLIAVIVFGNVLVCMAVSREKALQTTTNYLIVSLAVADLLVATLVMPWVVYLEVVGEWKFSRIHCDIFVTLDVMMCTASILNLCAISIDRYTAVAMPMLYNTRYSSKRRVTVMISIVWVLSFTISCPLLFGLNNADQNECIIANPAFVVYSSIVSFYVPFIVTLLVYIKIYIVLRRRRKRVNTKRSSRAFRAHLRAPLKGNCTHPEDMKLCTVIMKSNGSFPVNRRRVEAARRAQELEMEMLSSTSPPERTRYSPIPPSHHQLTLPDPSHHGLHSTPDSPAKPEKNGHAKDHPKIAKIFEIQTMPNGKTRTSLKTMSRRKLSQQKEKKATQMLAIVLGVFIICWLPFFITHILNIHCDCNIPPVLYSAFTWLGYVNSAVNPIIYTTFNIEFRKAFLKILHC
Procedure: (§2) Consistent with standard competition radioligand binding assays, the methodology was based on displacement of radioligand from tissues (or cell lines) bearing the receptor of interest (Cheng, Y. and Prusoff, W. H. (1973). Biochem. Pharmacol. 22, 3099-3108). The measurements were based on the binding of a single concentration of radiolabeled ligand in the presence of various concentrations of unlabeled ligand.
(§3) Tissues (or cellular plasma membrane fractions) were incubated in the presence of radioligand at equilibrium and in the presence of a range of concentrations of the test compounds (which were non-radiolabeled), and the displaced radioligand was separated from the membranes by filtration. Nonspecific binding was assessed by measuring displacement of the radioligand in the presence of a compound known to block binding of the radioligand to the receptor. Finally, the concentration-response relationship for radioligand displacement (corrected for non-specific binding) was used to assess binding of the test compound to the receptor.

[4] = biological target: T4, human 5HT1A receptors (Homo sapiens, UniProt P08908); experiment: h5-HT1A receptor radioligand binding ([3H]8OH-DPAT); details: pKi reported on a scale of 1 through 5
T4 construct: expressed in transfected cells; host or cells: Chinese hamster ovary cells (membranes)
T4 sequence (P08908 1-422): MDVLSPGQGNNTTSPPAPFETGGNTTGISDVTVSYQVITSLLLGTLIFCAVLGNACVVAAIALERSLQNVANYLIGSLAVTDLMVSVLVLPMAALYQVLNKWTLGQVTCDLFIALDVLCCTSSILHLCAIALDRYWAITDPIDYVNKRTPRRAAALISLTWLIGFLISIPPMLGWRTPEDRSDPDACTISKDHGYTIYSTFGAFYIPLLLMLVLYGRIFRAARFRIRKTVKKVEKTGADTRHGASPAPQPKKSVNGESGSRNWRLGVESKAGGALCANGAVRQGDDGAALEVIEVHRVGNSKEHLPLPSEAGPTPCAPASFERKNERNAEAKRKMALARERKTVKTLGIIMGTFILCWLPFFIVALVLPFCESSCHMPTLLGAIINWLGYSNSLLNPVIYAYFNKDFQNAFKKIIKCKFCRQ
Method in brief: as §1

[5] = biological target: T5, human 5HT2C receptors (Homo sapiens, UniProt P28335); experiment: h5-HT2C receptor radioligand binding ([3H]Mesulergine); details: pKi reported on a scale of 1 through 5
T5 construct: expressed in transfected cells; host or cells: human embryo kidney cells (membranes)
T5 sequence (P28335 33-458): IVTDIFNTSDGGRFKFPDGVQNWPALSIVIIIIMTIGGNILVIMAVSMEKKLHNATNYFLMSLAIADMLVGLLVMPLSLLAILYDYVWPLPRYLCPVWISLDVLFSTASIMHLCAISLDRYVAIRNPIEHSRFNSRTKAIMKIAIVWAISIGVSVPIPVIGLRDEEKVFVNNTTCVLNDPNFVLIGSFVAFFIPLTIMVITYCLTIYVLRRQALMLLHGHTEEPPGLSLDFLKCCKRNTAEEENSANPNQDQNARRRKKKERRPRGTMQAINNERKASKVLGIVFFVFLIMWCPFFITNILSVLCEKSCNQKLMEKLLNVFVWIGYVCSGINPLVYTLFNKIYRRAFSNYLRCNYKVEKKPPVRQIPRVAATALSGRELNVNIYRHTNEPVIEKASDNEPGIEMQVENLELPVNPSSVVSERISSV
Method in brief: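 Test compound affinity was derived from concentration-dependent displacement of fixed [3H]mesulergine at equilibrium, after subtracting nonspecific binding measured with a reference blocker. Bound and free radioligand were separated by filtration of tissue or plasma-membrane preparations.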

[6] = biological target: T6, human M3 receptors (Homo sapiens, UniProt P20309); experiment: hM3 receptor radioligand binding ([3H]NMS)
T6 construct: expressed in transfected cells; host or cells: Chinese hamster ovary cells (membranes)
T6 sequence (P20309 whole entry): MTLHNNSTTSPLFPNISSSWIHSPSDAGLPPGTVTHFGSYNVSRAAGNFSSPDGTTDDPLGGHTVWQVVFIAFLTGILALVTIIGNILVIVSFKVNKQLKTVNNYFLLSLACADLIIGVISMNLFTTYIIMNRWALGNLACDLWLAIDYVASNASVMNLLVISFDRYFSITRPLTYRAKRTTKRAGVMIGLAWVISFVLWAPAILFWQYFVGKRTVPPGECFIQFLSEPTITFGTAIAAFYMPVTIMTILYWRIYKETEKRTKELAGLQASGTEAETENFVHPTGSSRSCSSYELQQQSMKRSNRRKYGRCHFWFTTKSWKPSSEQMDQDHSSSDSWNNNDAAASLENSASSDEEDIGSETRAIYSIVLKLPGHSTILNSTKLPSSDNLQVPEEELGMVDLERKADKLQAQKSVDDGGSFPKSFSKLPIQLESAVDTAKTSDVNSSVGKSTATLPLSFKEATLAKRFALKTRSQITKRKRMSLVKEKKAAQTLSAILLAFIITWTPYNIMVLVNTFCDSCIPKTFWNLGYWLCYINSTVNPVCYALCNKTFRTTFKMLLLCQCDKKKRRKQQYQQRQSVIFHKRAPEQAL
Procedure: as §2, §3

[7] = biological target: T7, human H1 receptors (Homo sapiens, UniProt P35367); experiment: hH1 receptor radioligand binding ([3H]Pyrilamine); details: pKi reported on a scale of 1 through 5
T7 construct: expressed in transfected cells; host or cells: Chinese hamster ovary cells (membranes)
T7 sequence (P35367 whole entry): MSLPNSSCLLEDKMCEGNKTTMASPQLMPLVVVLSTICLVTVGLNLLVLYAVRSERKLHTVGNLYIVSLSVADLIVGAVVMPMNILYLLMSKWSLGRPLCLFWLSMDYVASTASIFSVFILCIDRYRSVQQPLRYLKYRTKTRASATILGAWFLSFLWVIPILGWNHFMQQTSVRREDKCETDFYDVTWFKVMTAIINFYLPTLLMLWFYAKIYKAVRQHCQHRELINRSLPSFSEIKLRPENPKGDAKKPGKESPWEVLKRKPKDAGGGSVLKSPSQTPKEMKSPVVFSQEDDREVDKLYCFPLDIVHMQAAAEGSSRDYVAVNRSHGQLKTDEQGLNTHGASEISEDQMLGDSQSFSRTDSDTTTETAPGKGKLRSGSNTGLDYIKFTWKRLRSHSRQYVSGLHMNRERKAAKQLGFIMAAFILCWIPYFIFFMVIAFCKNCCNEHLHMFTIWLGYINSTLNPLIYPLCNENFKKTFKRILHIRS
Method in brief: as §1

[8] = biological target: T8, human 5HT7 receptors (Homo sapiens, UniProt P34969); experiment: h5-HT7 receptor radioligand binding ([3H]5-CT)
T8 construct: expressed in transfected cells; host or cells: Chinese hamster ovary cells (membranes)
T8 sequence (P34969 whole entry): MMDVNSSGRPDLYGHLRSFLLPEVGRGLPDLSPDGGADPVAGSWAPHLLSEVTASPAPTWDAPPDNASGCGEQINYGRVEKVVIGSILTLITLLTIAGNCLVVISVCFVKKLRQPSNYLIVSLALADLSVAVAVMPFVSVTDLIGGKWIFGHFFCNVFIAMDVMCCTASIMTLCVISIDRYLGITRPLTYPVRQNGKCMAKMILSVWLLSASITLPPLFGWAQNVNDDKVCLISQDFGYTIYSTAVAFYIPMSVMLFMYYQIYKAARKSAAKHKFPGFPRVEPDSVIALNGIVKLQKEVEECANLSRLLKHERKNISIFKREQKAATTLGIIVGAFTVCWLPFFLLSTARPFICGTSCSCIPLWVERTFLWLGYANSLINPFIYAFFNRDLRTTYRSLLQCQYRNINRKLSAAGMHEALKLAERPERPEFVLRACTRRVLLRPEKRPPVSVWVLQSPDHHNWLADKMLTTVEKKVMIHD
Procedure: as §2, §3

[9] = biological target: T9, human M1 receptors (Homo sapiens, UniProt P11229); experiment: hM1 receptor radioligand binding ([3H]NMS); details: pKi reported on a scale of 1 through 5
T9 construct: expressed in transfected cells; host or cells: Chinese hamster ovary cells (membranes)
T9 sequence (P11229 1-460): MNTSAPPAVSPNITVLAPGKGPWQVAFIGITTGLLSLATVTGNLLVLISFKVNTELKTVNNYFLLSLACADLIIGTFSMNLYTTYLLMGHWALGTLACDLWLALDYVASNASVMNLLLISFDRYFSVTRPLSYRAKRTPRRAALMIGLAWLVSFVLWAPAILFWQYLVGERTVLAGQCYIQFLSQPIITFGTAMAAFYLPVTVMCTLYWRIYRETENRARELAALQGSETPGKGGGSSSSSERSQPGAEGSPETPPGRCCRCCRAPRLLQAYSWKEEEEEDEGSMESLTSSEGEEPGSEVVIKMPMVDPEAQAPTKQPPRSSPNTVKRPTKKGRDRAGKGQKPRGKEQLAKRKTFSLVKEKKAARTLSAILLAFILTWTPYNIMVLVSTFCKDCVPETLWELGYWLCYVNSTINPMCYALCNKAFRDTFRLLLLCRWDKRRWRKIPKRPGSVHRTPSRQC
Method in brief: as §1

[10] = read-out: 5HT2A (pKb) (converted)
[11] = pKi reported on a scale of 1 through 5, read-out: D2L (pKi) (converted)
[12] = pKi reported on a scale of 1 through 5, read-out: M3 (pKi) (converted)
[13] = pKi reported on a scale of 1 through 5, read-out: 5HT7 (pKi) (converted)

Structure (SMILES)	Kb [1]	Ki [2]	Ki [3]	Ki [4]	Ki [5]	Ki [6]	Ki [7]	Ki [8]	Ki [9]	Kb [1, 10]	Ki [3, 11]	Ki [6, 12]	Ki [8, 13]
O=C(C[C@H]1CN(C2=Nc3cc(Cl)ccc3Oc3ccccc32)CCN1)O[C@@H]1CN2CCC1CC2 [DU, (S)-quinuclidin-3-yl 2-((S)-4-((E)-8-chlorodibenzo[b,f][1,4]oxazepin-11-yl)piperazin-2-yl)acetate]	> 100 nM	2510 to 9770 nM	2510 to 9770 nM	10 to 97.7 nM	100 to 977 nM	> 10 µM	100 to 977 nM	3980 to 9770 nM	5.01 to 9.77 µM				
COC(=O)C[C@H]1CN(C2=Nc3cc(Cl)ccc3Oc3ccccc32)CCN1C [DW, (S,E)-methyl 2-(4-(8-chlorodibenzo[b,f][1,4]oxazepin-11-yl)-1-methylpiperazin-2-yl)acetate]		> 10000 nM		1000 to 9770 nM	100 to 977 nM		100 to 977 nM		≤ 1.23 µM	31.6 to 97.7 nM	2510 to 9770 nM	> 10 µM	3980 to 9770 nM
CN1CCN(C2=Nc3cc(Cl)ccc3Oc3ccccc32)C[C@@H]1CC(=O)OC1CCCC1 [DX, (S,E)-cyclopentyl 2-(4-(8-chlorodibenzo[b,f][1,4]oxazepin-11-yl)-1-methylpiperazin-2-yl)acetate]		2510 to 9770 nM		1000 to 9770 nM	100 to 977 nM		100 to 977 nM		5.01 to 9.77 µM	10 to 30.9 nM	2510 to 9770 nM	> 10 µM	> 10000 nM
CC(C)(CO)NC(=O)C[C@H]1CN(C2=Nc3cc(Cl)ccc3Oc3ccccc32)CCN1 [EY, (S,E)-2-(4-(8-chlorodibenzo[b,f][1,4]oxazepin-11-yl)piperazin-2-yl)-N-(1-hydroxy-2-methylpropan-2-yl)acetamide]		631 to 2450 nM		10 to 97.7 nM	10 to 97.7 nM		10 to 97.7 nM		> 10 µM	3.16 to 9.77 nM	631 to 2450 nM	> 10 µM	631 to 1550 nM
CCCN(CCO)C(=O)C[C@H]1CN(C2=Nc3cc(Cl)ccc3Oc3ccccc32)CCN1 [EZ, (S,E)-2-(4-(8-chlorodibenzo[b,f][1,4]oxazepin-11-yl)piperazin-2-yl)-N-(2-hydroxyethyl)-N-propylacetamide]		2510 to 9770 nM		≤ 9.77 nM	10 to 97.7 nM		10 to 97.7 nM		> 10 µM	31.6 to 97.7 nM	2510 to 9770 nM	> 10 µM	631 to 1550 nM
O=C(C[C@H]1CN(C2=Nc3cc(Cl)ccc3Oc3ccccc32)CCN1)NCCO [FA, (S,E)-2-(4-(8-chlorodibenzo[b,f][1,4]oxazepin-11-yl)piperazin-2-yl)-N-(2-hydroxyethyl)acetamide]		631 to 2450 nM		10 to 97.7 nM	10 to 97.7 nM		10 to 97.7 nM		> 10 µM	3.16 to 9.77 nM	631 to 2450 nM	> 10 µM	631 to 1550 nM
C[C@@H](O)CNC(=O)C[C@H]1CN(C2=Nc3cc(Cl)ccc3Oc3ccccc32)CCN1 [FB, 2-((S)-4-((E)-8-chlorodibenzo[b,f][1,4]oxazepin-11-yl)piperazin-2-yl)-N-((R)-2-hydroxypropyl)acetamide]		631 to 2450 nM		10 to 97.7 nM	10 to 97.7 nM		10 to 97.7 nM		> 10 µM	< 3.09 nM	631 to 2450 nM	> 10 µM	631 to 1550 nM
COCCNC(=O)C[C@H]1CN(C2=Nc3cc(Cl)ccc3Oc3ccccc32)CCN1 [FC, (S,E)-2-(4-(8-chlorodibenzo[b,f][1,4]oxazepin-11-yl)piperazin-2-yl)-N-(2-methoxyethyl)acetamide]		631 to 2450 nM		10 to 97.7 nM	10 to 97.7 nM		10 to 97.7 nM		> 10 µM	3.16 to 9.77 nM	631 to 2450 nM	> 10 µM	631 to 1550 nM
O=C(C[C@H]1CN(C2=Nc3cc(Cl)ccc3Oc3ccccc32)CCN1)NCCOCCO [FN, (S,E)-2-(4-(8-chlorodibenzo[b,f][1,4]oxazepin-11-yl)piperazin-2-yl)-N-(2-(2-hydroxyethoxy)ethyl)acetamide]		631 to 2450 nM		10 to 97.7 nM	10 to 97.7 nM		10 to 97.7 nM		> 10 µM	3.16 to 9.77 nM	631 to 2450 nM	> 10 µM	631 to 1550 nM
CN(CCO)C(=O)C[C@H]1CN(C2=Nc3cc(Cl)ccc3Oc3ccccc32)CCN1 [FO, (S,E)-2-(4-(8-chlorodibenzo[b,f][1,4]oxazepin-11-yl)piperazin-2-yl)-N-(2-hydroxyethyl)-N-methylacetamide]		2510 to 9770 nM		100 to 977 nM	10 to 97.7 nM		10 to 97.7 nM		2.51 to 4.9 µM	10 to 30.9 nM	2510 to 9770 nM	> 10 µM	631 to 1550 nM
